This is an account of results in ChEMBL document CHEMBL4840306, “Chemodynamic therapy agents Cu(II) complexes of quinoline derivatives induced ER stress and mitochondria-mediated apoptosis in SK-OV-3 cells” (Eur J Med Chem, 2021).

One assay has as its system SK-OV-3. Briefly: Cytotoxicity against human SK-OV-3 cells assessed as reduction in cell viability measured after 48 hrs by MTT assay. The format is functional, cell-based. The conditions noted are these: SK-OV-3, 48 h. A general note: Formazan colour is commonly taken as a measure of viable cells.
The next assay concerns T-24. Briefly: Cytotoxicity against human T-24 cells assessed as reduction in cell viability measured after 48 hrs by MTT assay. The conditions noted are these: T-24, 48 h. The class given is functional, cell-based.
A further assay has as its system HepG2. Description: Cytotoxicity against human HepG2 cells assessed as reduction in cell viability measured after 48 hrs by MTT assay. The class given is functional, cell-based. The conditions noted are these: HepG2, 48 h.
The test system of another assay is MGC-803. Briefly: Cytotoxicity against human MGC-803 cells assessed as reduction in cell viability measured after 48 hrs by MTT assay. The class given is functional, cell-based. The conditions noted are these: MGC-803, 48 h.
A further assay concerns WI-38. Description: Cytotoxicity against human WI-38 cells assessed as reduction in cell viability measured after 48 hrs by MTT assay. The conditions noted are these: WI-38, 48 h. The format is cell-based.
A further assay relates to L02. Description: Cytotoxicity against human HL7702 cells assessed as reduction in cell viability measured after 48 hrs by MTT assay. The class given is cell-based. The conditions noted are these: L02, 48 h.

For `Oc1cccc(/C=N/c2cc3ccccc3nc2-c2ccccc2F)c1O`, the half-maximal inhibitory concentration (IC50) – broadly, the midpoint of a concentration-inhibition curve – with SK-OV-3 is 23.6 µM; with T-24 it was greater than 40 µM; with HepG2 it was greater than 40 µM; with MGC-803, greater than 40 µM; in the assay on WI-38 it was greater than 40 µM; with L02, 34 µM.
